Experimental findings from ChEMBL document CHEMBL1201862, “PubChem BioAssay data set” (2004) are described below.

Among the test systems are Malme-3M; RXF 393; EKVX; Hs-578T; BT-549; OVCAR-8; KM12; SNB-19; HCT-116; A549; MDA-MB-435; HOP-62; SF-268; T47D; K562; NCI-H23; UACC-257; U-251; LOX IMVI; SF-539.
Common to all, as to assay: inhibition of tumour cell growth, NCI panel, 48 h

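All cell lines were grown in 96-well plates and treated with compound for 48 hours. GI50 = concentration required for 50% inhibition of growth.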 Calls of active or inactive are those of the source. No stated cut-off is given here; in the data, active = GI50 up to about 1.1 µM and inactive = higher.

Regarding `COc1ccc2c(Cl)cc(NC(=S)Nc3ccccc3)nc2c1`, the GI50 in the experiment with Malme-3M was 15.2 µM (inactive); in the experiment with RXF 393, 20.2 µM (inactive); in the experiment on EKVX it was 22 µM (inactive); with Hs-578T, 14.4 µM (inactive); in the experiment on BT-549, 39 µM (inactive); in the experiment on OVCAR-8, 19.4 µM (inactive). For the same compound, the GI50 with KM12 was 18.7 µM (inactive); with SNB-19, 20.6 µM (inactive); in the experiment on HCT-116, 20.2 µM (inactive); in the experiment with A549, 29.5 µM (inactive); in the experiment on MDA-MB-435, 17.7 µM (inactive); in the experiment on HOP-62, 35.5 µM (inactive). Moreover, the GI50 was 24.8 µM (inactive) with SF-268; 14.5 µM (inactive) with T47D; 23.4 µM (inactive) with K562; 23.4 µM (inactive) in the experiment with NCI-H23; 60.8 µM (inactive) in the experiment on UACC-257; 20 µM (inactive) in the experiment on U-251. Moreover, the figures for the GI50 in the experiment on LOX IMVI and in the experiment with SF-539 were 21.1 µM (inactive) and 32.6 µM (inactive), respectively.

As to `CC(=O)OC(C)C1C2=C(C(=O)CC1(C)O)C(=O)c1c(ccc(-c3ccc4c(c3O)C(=O)C3=C(C4=O)C(C(C)OC(C)=O)C(C)(O)CC3=O)c1O)C2=O` (stereo not given), the GI50 in the experiment with Malme-3M was 0.724 µM (active); with RXF 393, 1.74 µM (inactive); in the experiment with EKVX, 4.36 µM (inactive); in the experiment on Hs-578T it was 2.11 µM (inactive); with BT-549, 1.28 µM (inactive); in the experiment on OVCAR-8, 2.45 µM (inactive). Moreover, the GI50 in the experiment on KM12 was 3.19 µM (inactive); in the experiment with SNB-19, 11.7 µM (inactive); with HCT-116, 0.521 µM (active); in the experiment with A549, 5.47 µM (inactive); with MDA-MB-435, 2.14 µM (inactive); with HOP-62 it was 18.5 µM (inactive). In addition, the GI50 is 2.95 µM (inactive) with SF-268; 0.78 µM (active) in the experiment with T47D; 0.701 µM (active) with K562; 1.47 µM (inactive) in the experiment on NCI-H23; 1.75 µM (inactive) in the experiment with UACC-257; 1.72 µM (inactive) in the experiment on U-251. In addition, the GI50 in the experiment with LOX IMVI is 1.42 µM (inactive); in the experiment with SF-539, 1.92 µM (inactive).

With `O=Cc1[nH]c(=O)[nH]c(=O)c1CCl`, the GI50 in the experiment with Malme-3M is > 100 µM (inactive); with RXF 393 it was 71.6 µM (inactive); in the experiment on EKVX, > 100 µM (inactive); in the experiment with Hs-578T, > 100 µM (inactive); with BT-549, > 100 µM (inactive); in the experiment with OVCAR-8 it was > 82.4 µM (inactive). The GI50 in the experiment on KM12 was > 100 µM (inactive); with SNB-19 it was > 100 µM (inactive); in the experiment with HCT-116, 50.5 µM (inactive); in the experiment on A549 it was > 100 µM (inactive); with MDA-MB-435 it was > 100 µM (inactive); in the experiment with HOP-62 it was > 100 µM (inactive). Further, the GI50 is > 59.3 µM (inactive) in the experiment with SF-268; > 100 µM (inactive) in the experiment with T47D; 50.8 µM (inactive) in the experiment with K562; > 100 µM (inactive) in the experiment with NCI-H23; > 100 µM (inactive) in the experiment on UACC-257; > 61 µM (inactive) in the experiment with U-251. Also, the GI50 in the experiment on LOX IMVI was 30 µM (inactive); in the experiment with SF-539, > 63.2 µM (inactive).

With `CSc1nc(C#N)c(/N=C\N(C)C)n1C`, the GI50 with Malme-3M, in the experiment with RXF 393, in the experiment with EKVX, in the experiment with Hs-578T, with BT-549 and with OVCAR-8 was > 100 µM (inactive) each time. For the same compound, the GI50 in the experiment on KM12, with SNB-19, with HCT-116, in the experiment with A549, in the experiment with MDA-MB-435 and in the experiment on HOP-62 was > 100 µM (inactive) in each case. In addition, the GI50 with SF-268, with T47D, in the experiment on K562, in the experiment on NCI-H23, with UACC-257 and in the experiment with U-251 was > 100 µM (inactive) throughout. Besides, the GI50 in the experiment with LOX IMVI and in the experiment on SF-539 was > 100 µM (inactive) each time.

As to `O=C(O)Cc1cccnc1`, the GI50 in the experiment on Malme-3M, with RXF 393, in the experiment on EKVX, in the experiment with Hs-578T, in the experiment on BT-549 and with OVCAR-8 was > 100 µM (inactive) each time. In addition, the GI50 in the experiment with KM12, in the experiment with SNB-19, in the experiment on HCT-116, in the experiment with A549, in the experiment on MDA-MB-435 and with HOP-62 was > 100 µM (inactive) each time. Further, the GI50 in the experiment on SF-268, in the experiment with T47D, in the experiment with K562, in the experiment with NCI-H23, in the experiment on UACC-257 and with U-251 was > 100 µM (inactive) in each case. Moreover, the GI50 in the experiment with LOX IMVI and in the experiment with SF-539 was > 100 µM (inactive) in each case.

As for `O=c1c2ccccc2nc(-c2ccccc2)n1O`, the GI50 is > 100 µM (inactive) with Malme-3M; 31.3 µM (inactive) in the experiment on RXF 393; > 100 µM (inactive) in the experiment with EKVX; > 100 µM (inactive) in the experiment with Hs-578T; > 100 µM (inactive) in the experiment on BT-549; 51.5 µM (inactive) with OVCAR-8. Moreover, the GI50 is 67 µM (inactive) in the experiment with KM12; > 100 µM (inactive) in the experiment on SNB-19; 55.8 µM (inactive) in the experiment on HCT-116; 71.8 µM (inactive) with A549; > 100 µM (inactive) in the experiment on MDA-MB-435; 5.28 µM (inactive) in the experiment on HOP-62. The GI50 in the experiment with SF-268 was > 100 µM (inactive); in the experiment with T47D, 45.6 µM (inactive); in the experiment on K562 it was 30.9 µM (inactive); in the experiment with NCI-H23 it was 71 µM (inactive); in the experiment on UACC-257 it was > 100 µM (inactive); in the experiment on U-251, > 100 µM (inactive). Besides, the values for the GI50 with LOX IMVI and with SF-539 were 76.6 µM (inactive) and > 100 µM (inactive), respectively.

Regarding `COC(=O)CCC1=NCC(C)(C)O1`, the GI50 with Malme-3M, in the experiment on RXF 393, in the experiment with EKVX, with Hs-578T, in the experiment with BT-549 and in the experiment on OVCAR-8 was > 10 µM (inactive) in each case. Moreover, the GI50 in the experiment on KM12, in the experiment on SNB-19, in the experiment on HCT-116, in the experiment on A549, in the experiment on MDA-MB-435 and in the experiment with HOP-62 was > 10 µM (inactive) each time. Also, the GI50 is > 10 µM (inactive) in the experiment with SF-268; > 10 µM (inactive) in the experiment on T47D; 0.182 µM (active) with K562; > 10 µM (inactive) with NCI-H23; > 10 µM (inactive) in the experiment with UACC-257; > 10 µM (inactive) in the experiment on U-251. Also, the GI50 with LOX IMVI and in the experiment on SF-539 was > 10 µM (inactive) in each case.

As to `N#CC1=C(N)N(c2ccccc2)C(c2ccccc2)C1(C#N)C#N` (stereo not given), the GI50 in the experiment on Malme-3M is 17.6 µM (inactive); with RXF 393, 15 µM (inactive); in the experiment on EKVX it was 19.7 µM (inactive); in the experiment on Hs-578T, 30 µM (inactive); with BT-549, 16.7 µM (inactive); with OVCAR-8 it was 16.2 µM (inactive). Moreover, the GI50 is 14.5 µM (inactive) in the experiment with KM12; 18.4 µM (inactive) in the experiment with SNB-19; 14.5 µM (inactive) in the experiment with HCT-116; 17.8 µM (inactive) in the experiment with A549; 18.8 µM (inactive) in the experiment on MDA-MB-435; 18 µM (inactive) in the experiment with HOP-62. Moreover, the GI50 is 22.6 µM (inactive) in the experiment on SF-268; 10.4 µM (inactive) with T47D; 6.05 µM (inactive) with K562; 20.8 µM (inactive) in the experiment on NCI-H23; 19.1 µM (inactive) in the experiment on UACC-257; 17.1 µM (inactive) in the experiment on U-251. Also, the GI50 in the experiment on LOX IMVI is 16.6 µM (inactive); in the experiment on SF-539, 14.7 µM (inactive).

With `CC(NC(=O)c1ccccc1)(C(=O)O)C(=O)O`, the GI50 in the experiment with Malme-3M, in the experiment on RXF 393, in the experiment with EKVX, in the experiment with Hs-578T, with BT-549 and with OVCAR-8 was > 100 µM (inactive) throughout. Besides, the GI50 in the experiment on KM12, in the experiment on SNB-19, in the experiment with HCT-116, in the experiment on A549, in the experiment on MDA-MB-435 and with HOP-62 was > 100 µM (inactive) each time. The GI50 in the experiment with SF-268, in the experiment with T47D, in the experiment on K562, in the experiment on NCI-H23, in the experiment with UACC-257 and in the experiment on U-251 was > 100 µM (inactive) in each case. Moreover, the GI50 with LOX IMVI and in the experiment on SF-539 was > 100 µM (inactive) throughout.

For the compound `CC1C(O)Oc2cc3c(cc2C1c1ccccc1O)OCO3` (stereo not given), the GI50 in the experiment on Malme-3M is 25.3 µM (inactive); in the experiment with RXF 393 it was 14.3 µM (inactive); in the experiment on EKVX, 43.6 µM (inactive); in the experiment on Hs-578T, 11.5 µM (inactive); in the experiment with BT-549, 34.9 µM (inactive); in the experiment on OVCAR-8, 36.5 µM (inactive). In addition, the GI50 was 32.1 µM (inactive) in the experiment on KM12; 51.6 µM (inactive) with SNB-19; 17.9 µM (inactive) in the experiment with HCT-116; 30.1 µM (inactive) with A549; 29.9 µM (inactive) with MDA-MB-435; 65 µM (inactive) with HOP-62. For the same compound, the GI50 is 36.1 µM (inactive) in the experiment with SF-268; 30.4 µM (inactive) in the experiment on T47D; 17.6 µM (inactive) in the experiment on K562; 46.1 µM (inactive) in the experiment on NCI-H23; 30.1 µM (inactive) with UACC-257; 37.8 µM (inactive) in the experiment on U-251. Further, the GI50 is 31.6 µM (inactive) in the experiment on LOX IMVI and 27.9 µM (inactive) in the experiment with SF-539.
